Results reported in ChEMBL document CHEMBL3425503, “Synthesis and studies on the mGluR agonist activity of FAP4 stereoisomers” (Bioorg Med Chem Lett, 2015).
Active and inactive are the calls of the source. No cut-off for these calls is given here.

Assays:
Assay type in all cases: functional, cell-based
[1] = target: Metabotropic glutamate receptor 7 (Rattus norvegicus, UniProt P35400); experiment: Agonist activity at rat mGluR7 expressed in HEK293 cells assessed as induction of inositol phosphate production by HTRF assay
Sequence of Metabotropic glutamate receptor 7 (P35400 whole entry): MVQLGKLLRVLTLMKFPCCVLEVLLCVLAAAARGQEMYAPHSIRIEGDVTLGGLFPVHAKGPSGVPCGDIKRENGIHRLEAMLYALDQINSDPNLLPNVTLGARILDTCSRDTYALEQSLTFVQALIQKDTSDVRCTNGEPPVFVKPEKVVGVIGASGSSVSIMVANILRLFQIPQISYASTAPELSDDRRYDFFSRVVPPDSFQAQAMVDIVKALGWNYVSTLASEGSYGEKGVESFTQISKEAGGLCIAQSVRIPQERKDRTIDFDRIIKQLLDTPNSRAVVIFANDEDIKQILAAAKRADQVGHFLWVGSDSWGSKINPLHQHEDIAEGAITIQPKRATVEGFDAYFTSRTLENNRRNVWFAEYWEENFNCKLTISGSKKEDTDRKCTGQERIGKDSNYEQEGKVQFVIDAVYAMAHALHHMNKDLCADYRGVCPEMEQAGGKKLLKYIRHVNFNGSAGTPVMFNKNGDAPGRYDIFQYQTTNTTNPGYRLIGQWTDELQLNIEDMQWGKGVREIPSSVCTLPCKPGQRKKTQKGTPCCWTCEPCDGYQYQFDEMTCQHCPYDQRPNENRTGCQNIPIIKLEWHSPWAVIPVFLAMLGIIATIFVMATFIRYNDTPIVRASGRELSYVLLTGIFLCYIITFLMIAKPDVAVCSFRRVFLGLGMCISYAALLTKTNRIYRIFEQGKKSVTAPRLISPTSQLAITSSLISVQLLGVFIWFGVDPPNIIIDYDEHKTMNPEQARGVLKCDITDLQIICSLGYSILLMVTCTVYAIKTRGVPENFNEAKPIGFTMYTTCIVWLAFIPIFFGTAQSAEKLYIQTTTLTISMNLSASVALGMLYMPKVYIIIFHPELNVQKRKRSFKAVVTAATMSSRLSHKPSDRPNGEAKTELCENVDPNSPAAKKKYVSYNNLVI

[2] = target: Metabotropic glutamate receptor 6 (Rattus norvegicus, UniProt P35349); experiment: Agonist activity at rat mGluR6 expressed in HEK293 cells assessed as induction of inositol phosphate production by HTRF assay
Sequence of Metabotropic glutamate receptor 6 (P35349 whole entry): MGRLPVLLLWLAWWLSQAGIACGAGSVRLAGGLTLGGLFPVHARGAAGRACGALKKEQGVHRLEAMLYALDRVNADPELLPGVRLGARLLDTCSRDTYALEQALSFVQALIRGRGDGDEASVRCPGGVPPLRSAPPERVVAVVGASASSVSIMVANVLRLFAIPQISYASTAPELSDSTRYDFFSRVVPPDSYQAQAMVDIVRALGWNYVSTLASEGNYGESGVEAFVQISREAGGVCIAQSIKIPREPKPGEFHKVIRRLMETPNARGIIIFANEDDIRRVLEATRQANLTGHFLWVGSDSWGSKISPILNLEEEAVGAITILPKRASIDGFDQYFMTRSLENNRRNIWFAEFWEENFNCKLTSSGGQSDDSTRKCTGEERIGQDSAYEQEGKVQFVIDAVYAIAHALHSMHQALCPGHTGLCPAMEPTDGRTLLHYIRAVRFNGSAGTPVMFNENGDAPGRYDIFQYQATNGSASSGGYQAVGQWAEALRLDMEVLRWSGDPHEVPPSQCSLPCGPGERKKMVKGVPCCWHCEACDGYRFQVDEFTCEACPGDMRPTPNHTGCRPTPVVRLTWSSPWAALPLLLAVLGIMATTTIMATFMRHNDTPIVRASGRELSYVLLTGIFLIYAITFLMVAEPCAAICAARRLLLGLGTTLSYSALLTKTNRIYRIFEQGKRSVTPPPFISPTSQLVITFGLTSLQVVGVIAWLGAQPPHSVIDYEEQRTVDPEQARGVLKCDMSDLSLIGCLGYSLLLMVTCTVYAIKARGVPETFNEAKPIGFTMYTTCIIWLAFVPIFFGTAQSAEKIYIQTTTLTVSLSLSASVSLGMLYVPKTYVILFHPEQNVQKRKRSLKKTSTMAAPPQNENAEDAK

[3] = target: Metabotropic glutamate receptor 4 (Rattus norvegicus, UniProt P31423); experiment: Agonist activity at rat mGluR4 expressed in HEK293 cells assessed as induction of inositol phosphate production by HTRF assay
Sequence of Metabotropic glutamate receptor 4 (P31423 whole entry): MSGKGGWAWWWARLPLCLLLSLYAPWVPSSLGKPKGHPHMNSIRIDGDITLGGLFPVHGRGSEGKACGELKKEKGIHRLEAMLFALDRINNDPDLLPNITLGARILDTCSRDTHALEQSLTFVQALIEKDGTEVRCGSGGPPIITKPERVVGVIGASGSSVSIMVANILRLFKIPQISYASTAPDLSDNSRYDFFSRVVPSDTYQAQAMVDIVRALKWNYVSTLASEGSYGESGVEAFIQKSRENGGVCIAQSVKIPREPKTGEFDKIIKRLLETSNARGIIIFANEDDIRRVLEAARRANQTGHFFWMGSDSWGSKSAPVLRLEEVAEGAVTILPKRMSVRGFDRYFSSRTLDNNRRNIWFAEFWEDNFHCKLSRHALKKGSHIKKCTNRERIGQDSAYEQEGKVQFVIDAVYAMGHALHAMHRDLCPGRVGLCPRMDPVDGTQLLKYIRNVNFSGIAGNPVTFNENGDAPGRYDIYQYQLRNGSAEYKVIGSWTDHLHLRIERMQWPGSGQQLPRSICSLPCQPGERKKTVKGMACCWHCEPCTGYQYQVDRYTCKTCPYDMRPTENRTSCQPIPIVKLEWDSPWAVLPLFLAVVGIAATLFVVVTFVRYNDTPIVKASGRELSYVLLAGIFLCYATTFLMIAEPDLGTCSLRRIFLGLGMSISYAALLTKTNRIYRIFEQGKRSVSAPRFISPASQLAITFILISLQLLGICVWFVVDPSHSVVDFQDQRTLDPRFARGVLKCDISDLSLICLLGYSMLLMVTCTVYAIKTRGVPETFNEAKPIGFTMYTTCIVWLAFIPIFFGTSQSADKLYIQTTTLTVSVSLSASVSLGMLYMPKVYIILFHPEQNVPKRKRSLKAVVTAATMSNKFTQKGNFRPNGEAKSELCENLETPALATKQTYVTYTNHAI

[4] = target: Metabotropic glutamate receptor 8 (Rattus norvegicus, UniProt P70579); experiment: Agonist activity at rat mGluR8 expressed in HEK293 cells assessed as induction of inositol phosphate production by HTRF assay
Sequence of Metabotropic glutamate receptor 8 (P70579 whole entry): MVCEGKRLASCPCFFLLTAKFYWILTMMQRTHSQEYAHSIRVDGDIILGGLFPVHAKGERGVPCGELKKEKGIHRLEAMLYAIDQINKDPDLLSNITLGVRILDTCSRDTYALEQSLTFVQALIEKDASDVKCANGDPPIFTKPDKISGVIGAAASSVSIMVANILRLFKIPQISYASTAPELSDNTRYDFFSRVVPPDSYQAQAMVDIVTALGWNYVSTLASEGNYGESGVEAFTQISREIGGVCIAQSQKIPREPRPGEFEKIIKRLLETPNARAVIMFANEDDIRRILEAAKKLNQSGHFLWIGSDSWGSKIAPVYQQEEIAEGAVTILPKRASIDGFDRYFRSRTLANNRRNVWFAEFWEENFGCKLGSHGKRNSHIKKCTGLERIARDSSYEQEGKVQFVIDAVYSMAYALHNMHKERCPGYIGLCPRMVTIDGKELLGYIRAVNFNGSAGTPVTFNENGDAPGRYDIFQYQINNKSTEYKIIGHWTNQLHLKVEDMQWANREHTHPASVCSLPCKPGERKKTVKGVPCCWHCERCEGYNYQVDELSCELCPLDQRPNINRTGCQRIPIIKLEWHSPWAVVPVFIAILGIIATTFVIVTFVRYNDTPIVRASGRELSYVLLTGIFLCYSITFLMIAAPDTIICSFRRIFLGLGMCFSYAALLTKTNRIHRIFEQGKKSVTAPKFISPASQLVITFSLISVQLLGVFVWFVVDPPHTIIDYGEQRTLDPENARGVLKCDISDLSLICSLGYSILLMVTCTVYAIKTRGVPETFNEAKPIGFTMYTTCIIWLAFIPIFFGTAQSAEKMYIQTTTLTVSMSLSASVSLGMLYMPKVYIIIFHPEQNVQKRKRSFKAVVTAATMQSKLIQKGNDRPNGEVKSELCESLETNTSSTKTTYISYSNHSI

[5] = target: Metabotropic glutamate receptor 2 (Rattus norvegicus, UniProt P31421); experiment: Agonist activity at rat mGluR2 expressed in HEK293 cells assessed as induction of inositol phosphate production by HTRF assay
Sequence of Metabotropic glutamate receptor 2 (P31421 whole entry): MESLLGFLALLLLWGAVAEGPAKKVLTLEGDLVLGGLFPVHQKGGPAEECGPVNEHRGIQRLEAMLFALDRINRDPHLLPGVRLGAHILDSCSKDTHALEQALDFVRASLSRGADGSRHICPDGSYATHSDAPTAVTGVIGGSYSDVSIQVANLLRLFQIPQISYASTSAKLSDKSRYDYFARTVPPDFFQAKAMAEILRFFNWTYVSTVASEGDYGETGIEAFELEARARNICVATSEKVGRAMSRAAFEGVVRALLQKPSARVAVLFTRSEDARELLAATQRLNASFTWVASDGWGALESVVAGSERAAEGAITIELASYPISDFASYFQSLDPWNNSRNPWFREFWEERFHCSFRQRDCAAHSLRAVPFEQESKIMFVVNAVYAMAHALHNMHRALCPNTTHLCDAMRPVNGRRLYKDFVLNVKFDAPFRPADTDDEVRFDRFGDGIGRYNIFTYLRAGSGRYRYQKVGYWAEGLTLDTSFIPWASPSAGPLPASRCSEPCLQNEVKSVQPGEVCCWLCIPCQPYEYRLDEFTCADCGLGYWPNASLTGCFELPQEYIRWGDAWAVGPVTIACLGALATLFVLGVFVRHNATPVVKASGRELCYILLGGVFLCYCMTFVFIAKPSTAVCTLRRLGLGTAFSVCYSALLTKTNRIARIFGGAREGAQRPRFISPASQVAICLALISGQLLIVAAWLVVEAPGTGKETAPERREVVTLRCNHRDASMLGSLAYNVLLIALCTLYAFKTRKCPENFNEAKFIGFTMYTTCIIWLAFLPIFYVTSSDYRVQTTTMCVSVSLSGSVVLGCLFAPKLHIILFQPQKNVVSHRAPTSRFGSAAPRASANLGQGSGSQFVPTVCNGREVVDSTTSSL

[6] = target: Metabotropic glutamate receptor 1 (Rattus norvegicus) (UniProt P23385); experiment: Agonist activity at rat mGluR1 expressed in HEK293 cells assessed as induction of inositol phosphate production at 100 uM by HTRF assay
[7] = target: Metabotropic glutamate receptor 5 (Rattus norvegicus) (UniProt P31424); experiment: Agonist activity at rat mGluR5 expressed in HEK293 cells assessed as induction of inositol phosphate production at 100 uM by HTRF assay

Compound | EC50 [1] | EC50 [2] | EC50 [3] | EC50 [4] | other results
N[C@@H](CCC(=O)O)C(=O)O [GLUTAMIC ACID] | > 100 µM | 82.2 µM | 12.6 µM | 21.5 µM | 
NC1(C(=O)O)CC1(F)CP(=O)(O)O (racemic; form 1) [listing 1 of 2 here] | > 100 µM | 6.01 µM | 0.3 µM | 1.25 µM | EC50 [5]: > 100 µM
NC1(C(=O)O)CC1(F)CP(=O)(O)O (single isomer, unassigned; form 1) |  |  | 0.12 µM |  | 
N[C@@H](CCP(=O)(O)O)C(=O)O | 426 µM | 3.45 µM | 0.03 µM | 0.11 µM | 
NC1(C(=O)O)CC1(F)CP(=O)(O)O (racemic; form 1) [listing 2 of 2 here] |  |  |  |  | Activity [6]: inactive; Activity [7]: inactive
NC1(C(=O)O)CC1(F)CP(=O)(O)O (stereo in doubt; form 1) |  |  | 11.4 µM |  | 
NC1(C(=O)O)CC1(F)CP(=O)(O)O (single isomer, unassigned; form 2) |  |  | 0.1 µM |  | 
NC1(C(=O)O)CC1(F)CP(=O)(O)O (stereo in doubt; form 2) |  |  | 135 µM |  | 
NC1(C(=O)O)CC1(F)CP(=O)(O)O (racemic; form 2) |  |  | 0.1 µM |  | 
N[C@@]1(C(=O)O)C[C@H]1CP(=O)(O)O |  |  | 0.03 µM |  | 
